Measurements published in patent US20260216057A1, “PHARMACEUTICAL COMPOSITIONS FOR HERPES VIRUS” (priority 2022, published 2026).

Key:
HSV-2 = conditions: Field et al. (2013); read-out: in-vitro EC50 against HSV-2; cited from earlier work
[1] = Example 7: Compound 1 aqueous suspension SC PK study in rat; format: in vivo, male Sprague Dawley rats; conditions: aqueous suspension (Form A), 10 mg/kg
Experimental: The LC-MS methodology and conditions used to analyse the helicase-primase inhibitor Compound 1 in plasma samples from the sub-cutaneous injection PK studies (Examples 7 and 10-12) are described in Table 3 and Table 4. An aqueous suspension of crystalline Compound 1 (Form A) was prepared in a 0.9% NaCl+0.5% polysorbate 80 vehicle at a concentration of 3.0 mg/mL as described in Example 2. The suspension was then dosed to male SD rats at 10 mg/kg according to the Example 2 animal dosing method.

[2] = Injection site observation in Example 7 Compound 1 PK studies; format: in vivo, rat, monkey, dog; conditions: SC Compound 1 depot formulations, Example 7, 3 species
Experimental: The suspension was then dosed to male SD rats at 10 mg/kg according to the Example 2 animal dosing method. The suspension was then dosed to male cyno monkeys at 10 mg/kg according to the Example 3 animal dosing method. The suspension was then dosed to male non-naïve beagle dogs at 10 mg/kg according to the Example 4 animal dosing method.

[3] = Example 10: Compound 1 (Form A) aqueous suspension SC PK study in rat; format: in vivo, male Sprague Dawley rats; conditions: 10 mg/kg
Experimental: An aqueous suspension of Compound 1 free form (crystalline Form A) in a 0.9% NaCl+0.5% polysorbate 80 vehicle at a concentration of 3 mg/mL was prepared as follows: • 1) Vehicle (0.9% w/w NaCl and 0.5% w/w polysorbate 80) was prepared by dissolving NaCl and polysorbate 80 in water. • 2) An appropriate amount of Compound 1 free form was weighed and added to the vehicle. • 3) The mixture was vortexed for 1 minute, stirred for 10 minutes and then sonicated for 15 minutes. • 4) The final dosing formulation was a homogenous white cloudy suspension.
Male Sprague Dawley (SD) rats with ~230-250 g body weight (ages 6-8 weeks) were used for the pharmacokinetic study. The animals had free access to food and water.
The Compound 1 suspension described above was administered via sub-cutaneous injection to each animal group (n=3) with a dosing volume of 3.33 mL/kg to achieve a 10 mg/kg dose.
At each time point, approximately 200 μL whole blood was collected in a K2EDTA tube via the jugular vein. Blood samples were put on ice and centrifuged at 2000 g for 5 min to obtain a plasma sample within 15 minutes. Plasma samples were stored at approximately −70° C. until analyzed by LC-MS.

[4] = Example 13A: Compound 1 IV PK study in monkey; format: in vivo, male non-naïve cynomolgus monkeys; conditions: 0.2 mg/kg
Experimental: A 0.2 mg/mL solution of Compound 1 in 10% DMSO, 10% Solutol HS15 and 80% Saline was prepared as follows: • 1) A stock solution of Compound 1 in DMSO was prepared. • 2) An equal volume of the Compound 1 stock solution and Solutol HS15 were combined and mixed. • 3) The above solution was diluted with normal saline to reach the target concentration. The final formulation was a clear solution. Male non-naïve Cyno Monkeys with were used for the monkey PK study. The animals had free access to food and water. The Compound 1 solution described above was administered via intravenous injection (1 mL/kg) to each animal (n=3) to achieve a 0.2 mg/kg dose. At each time point, approximately 0.5 mL whole blood was collected into K2EDTA tubes. Blood samples were put on to ice and centrifuged at 2000 g for 5 min to obtain plasma sample within 15 minutes. Plasma samples were stored at approximately −70° C. until analyzed by LC-MS.

[5] = Example 11: Compound 1 (Form A) aqueous suspension SC PK study in monkey; format: in vivo, male cynomolgus monkeys; conditions: 10 mg/kg, following an initial drug burst
Experimental: An aqueous suspension of Compound 1 free form (Form A) in a 0.9% NaCl+0.5% polysorbate 80 vehicle at a concentration of 3.0 mg/mL was prepared as follows: • 1) Vehicle (0.9% w/w NaCl and 0.5% w/w polysorbate 80) was prepared by dissolving NaCl and polysorbate 80 in water. • 2) Appropriate amount of Compound 1 was weighed and added to the vehicle. • 3) The mixture was stirred for 15 minutes, then vortexed for 1 minute and then sonicated for 10 minutes. • 4) The final dosing formulation was a homogenous white cloudy suspension.
Male non-naïve Cyno Monkeys with ~4-6 kg body weight were used for the monkey PK study. The animals had free access to food and water. The prepared suspension was administered via subcutaneous injection to each animal group (n=3) with a dosing volume of 3.33 mL/kg to achieve a 10 mg/kg dose.
At each time point, approximately 0.5 mL whole blood was collected via the cephalic and saphenous vein into K2EDTA tubes. Blood samples were put on to ice and centrifuged at 2000 g for 5 min to obtain plasma sample within 15 minutes. Plasma samples were stored at approximately −70° C. until analyzed by LC-MS.

[6] = Example 15: Compound 1 solution SC PK study in rat; format: in vivo, male Sprague Dawley rats
Experimental: The LC-MS methodology and conditions used to analyse the helicase-primase inhibitor Compound 1 in rat plasma samples from the sub-cutaneous injection PK study described in Example 15 are provided in Table 8.
A solution of Compound 1 in 90% NMP and 10% Solutol HS15 at a concentration of 50 mg/mL was prepared as follows: • 1) An appropriate amount of crystalline Compound 1 (Form C) was weighed and added to NMP. • 2) After Compound 1 had dissolved, Solutol HS15 was added to the solution and mixed […]. • 3) The final dosing formulation was a clear solution.
Male Sprague Dawley (SD) rats with ~230-250 g body weight (aged 6-8 weeks) were used for the pharmacokinetic study. The animals had free access to food and water. […]
At each time point, approximately 150 μL whole blood was collected in a K2EDTA tube via the jugular vein. Blood samples were put on ice and centrifuged at 2000 g for 5 min to obtain a plasma sample within 15 minutes. Plasma samples were stored at approximately −70° C. until analyzed by LC-MS.

[7] = solution in 90% NMP/10% Solutol HS15

For `Cc1nc(N(C)C(=O)Cc2ccc(-c3ccccn3)cc2)sc1S(N)(=O)=O` [pritelivir, N-methyl-N-(4-methyl-5-sulfamoyl-1,3-thiazol-2-yl)-2-[4-(pyridin-2-yl)phenyl]acetamide], the EC50 (HSV-2) is listed as 29 nM.

For `Cc1nc(N2CCCN(c3ccc(-c4cc(F)ccc4F)cc3)C2=O)sc1S(N)(=O)=O` [Compound 1, 2-(3-(2′,5′-difluoro-[1,1′-biphenyl]-4-yl)-2-oxotetrahydropyrimidin-1(2H)-yl)-4-methylthiazole-5-sulfonamide], the “prolonged exposure out to (length of the study)” value [1] was “at least 144 hours”, the “adverse reactions at the injection sites” value [2] was “no adverse reactions observed” and the “prolonged exposure out to” value [3] was “at least 58 days”. The “variability in plasma concentrations” value [3] was “low”, the Clearance [4] was 4 mL/h/kg and the half-life [4] was 72 h. For the same compound, the “prolonged exposure out to” value [5] was “at least 220 days”, the “adverse reactions at the injection sites” value [6, 7] was “no adverse reactions were observed” and the “variability in plasma concentrations” value [6, 7] was “low”. The “prolonged exposure for (length of the study)” value ([6]; solution in 90% NMP/10% Solutol HS15 (50 mg/mL), dose of 50 mg/kg as printed, following an initial drug burst) was 960 h.
